Laboratory results published in US11266715B2, “C3A receptor agonists for use against ischemic brain injury, stroke, traumatic brain injury, spinal cord injury and neurodegenerative disorders” (priority 2016, dated 2022).

How the values were obtained:
[1] = system: WT mice subjected to photothrombotic stroke in the motor cortex; test: Grid walking task after photothrombotic stroke; format: in vivo, mouse
Procedure: Cortical photothrombosis was induced using the Rose Bengal method (Lee et al., 2007; Watson et al., 1985) with some modifications. Anesthesia was induced with isoflurane (Forene®, Abbott) in air and oxygen (1:1) initially at 5% and reduced to 2.5% during the surgical procedure. Body temperature was monitored by a rectal probe and maintained at 37° C. using a homeothermic control unit (Harvard Apparatus). Anesthetized mice were placed in a stereotaxic frame, the skull was exposed through a midline scalp incision and Rose Bengal (200 μl, 10 mg/ml solution in sterile saline, Sigma) was injected intraperitoneally. After 5 min, the skull and underlying brain tissue were illuminated for 12 min by a 2 mm diameter cold laser beam (50 mW, 561 nm; Cobolt AB) positioned at AP +0.5 mm and ML −2.7 mm relative to Bregma, targeting the border between left primary somatosensory and motor cortex (Porritt et al., 2012). For intervention experiments targeting motor cortex, stroke was induced as above with the following modifications: Transcranial illumination lasting 15 min was delivered using cold light source (LQ1600, Fiberoptic-Heim AG) equipped with 2 mm wide fiber optic probe and directed to AP +0 and ML −1.5 relative to Bregma. After illumination, the scalp was sutured and mice were placed in a warm cage for 45 min to recover from anesthesia prior to being returned to the home cage. Mice were provided with moist mashed food placed on the floor of the home cage and their weight was monitored daily for 7 days after surgery. There were no significant differences in body weight, body temperature (36.5±0.5° C.), duration of surgery, or post-stroke mortality between cohorts. Each cohort contained an even distribution of mice from the matched strains or treatment groups.
Purified human C3a peptide (Complement Technologies) was diluted in sterile phosphate buffered saline (PBS) to a concentration of 200 nM and a total of 20 μl (10 μl/nostril; corresponding to approximately 1.13 μg/kg body weight) of peptide solution or PBS was given intranasally to awake, hand-restrained mice held in a supine position. Solutions were administered through a pipette tip, drop-wise in 5 μl portions divided by 1 min intervals to allow for absorption. C3a or PBS was given every 24 hours on days 7 to 21 post-stroke for the short-term study or on days 7 to 28 post-stroke for the long-term study. Mice were assigned to C3a or PBS treatment using randomization stratified by body weight to avoid potential confounding effects of body weight on behavioural performance. The investigators carrying out behavioural studies and analysing data were blinded to treatment group. For the assessment of potential systemic anaphylactic response due to intranasal C3a inoculation, body temperature was monitored using a rectal temperature probe (Harvard Apparatus) inserted approximately 4 mm into the rectum of awake mice restrained by the scruff. Baseline temperature was taken before intranasal administration and 5, 15, 30, 45 and 75 min after C3a or PBS administration.
Functional impairment of mice treated intranasally with C3a or vehicle was assessed using a modified cylinder test and a grid walking task to closely evaluate forepaw function. Mice were tested once on each task one week before stroke induction to establish baseline performance. Next, they were tested on days 7, 14 and 21 (short-term study) or days 7, 14, 28, 42 and 56 (long-term study) post-stroke. […]

[2] = system: mice subjected to neonatal HI injury; test: Histomorphologic evaluation of hippocampus volume after neonatal HI; format: in vivo, mouse; conditions: WT or C3aR−/− mice, regardless of treatment length, P51-55
Procedure: On P51 (long-term study) or P55 (short-term study), mice were deeply anesthetized with thiopental [Pentothal Sodium (0.01 ml/g body weight), Hospira, Ill., USA)] and transcardially perfused with 0.9% saline, followed by 4% paraformaldehyde (PFA) in 0.1 M PBS. Brains were removed and post-fixed in 4% PFA at 4° C. for 24 h followed by 70% ethanol for 24 h. Tissue was processed using an automatic tissue processor (SAKURA Tissue Tek VIP 3000, Tournai, Belgium) and embedded in paraffin. Brains were cut at room temperature into 8-μm serial coronal sections using a sliding microtome (Microm HM 450, Thermo Scientific, Massachusetts, USA), attached to silane coated slides and dried at RT.
For the histomorphologic evaluation, slides were incubated for 1 h at 65° C. and stained with haematoxylin and eosin. A wide-field microscope (Nikon Eclipse 80i; Nikon Instruments Inc., Tokyo, Japan) equipped with a color camera (Nikon DXM 1200F) was used to obtain images of brain sections 208 μm apart between −1.60 mm and −2.02 mm relative to Bregma; 3 sections/mouse. ImageJ 1.46r software was used to trace around the ipsilesional and contralesional hippocampus and hemisphere. Volumes were calculated according to the Cavalieri's principle, where V=ΣA×P×T (Svedin et al., 2007) and hippocampus volume/hemisphere volume ratio was calculated for each hemisphere.

Substance: C3a: Purified human C3a peptide (Complement Technologies), C3a receptor agonist, amino acid sequence SEQ ID NO: 1
- right foot faults vs PBS-treated mice at days 14 and 56 post-stroke ([1]; long-term study, C3a days 7-28, P=0.0097 and P=0.047, Mann-Whitney U test): significantly fewer right foot faults
- grid walking performance day 56 vs pre-stroke baseline ([1]; long-term study, Dunn's test P=0.103): did not differ from pre-stroke baseline levels
- foot faults day 14 vs day 7 post-stroke (first week of treatment) ([1]; long-term study, P=0.041 Dunn's test, P=0.039 Wilcoxon test): significant reduction in foot faults
- right paw foot faults, days 14 and 21 vs day 7 ([1]; short-term study, C3a days 7-21, P=0.0545 and P=0.0839, Dunnett's test): tendency toward reduced number of right paw foot faults
- grid walking performance vs baseline at all time points after stroke ([1]; short-term study, P<0.001, both groups): significant impairment with respect to the baseline performance
- HI-induced loss of hippocampal tissue [2]: did not affect HI-induced loss of hippocampal tissue
